# US20250230154A1, “COMPOUND HAVING SHP2 PROTEIN DEGRADING ACTIVITY, AND MEDICAL USES THEREOF” (UBIX THERAPEUTICS, INC., priority 2021, published 2025)
# Target: T1, SHP2 protein (Homo sapiens, UniProt Q06124)
# T1 sequence (Q06124 1-593): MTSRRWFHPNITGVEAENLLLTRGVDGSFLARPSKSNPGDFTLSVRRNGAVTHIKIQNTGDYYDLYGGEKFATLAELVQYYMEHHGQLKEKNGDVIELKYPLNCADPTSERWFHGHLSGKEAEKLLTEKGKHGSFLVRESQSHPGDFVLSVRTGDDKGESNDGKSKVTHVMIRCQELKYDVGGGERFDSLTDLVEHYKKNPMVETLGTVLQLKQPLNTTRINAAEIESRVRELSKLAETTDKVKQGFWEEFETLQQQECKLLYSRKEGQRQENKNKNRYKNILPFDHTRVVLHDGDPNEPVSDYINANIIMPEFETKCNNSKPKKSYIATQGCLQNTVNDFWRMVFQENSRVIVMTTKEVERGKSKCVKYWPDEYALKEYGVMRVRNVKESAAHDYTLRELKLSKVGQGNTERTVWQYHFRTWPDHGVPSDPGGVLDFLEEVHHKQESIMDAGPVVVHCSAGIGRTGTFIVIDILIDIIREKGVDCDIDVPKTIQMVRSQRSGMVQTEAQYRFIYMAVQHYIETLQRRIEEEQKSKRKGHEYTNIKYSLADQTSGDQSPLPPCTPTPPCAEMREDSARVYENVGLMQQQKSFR
# Test: Measurement of SHP2 protein degradation in KYSE-520 cells (western blotting)
# Format: cell-based
# Design: endogenous in cells
# Conditions: 24 hours
# Protocol: Experimental Example 1: Measurement of SHP2 Protein Degradation in KYSE-520 Cells
# KYSE-520 cells were treated with the synthesized Example compound, and the amount of SHP2 protein present in the cells was measured using western blotting detection. The protocol of the experiment conducted using KYSE-520 cells was as follows:
# [Culture] KYSE-520 cells resuspended in RPMI1640 MEDIUM (Hyclone, SH30027.01) containing 5% FBS (Hyclone, SV30207.02) and 1% Penicillin-streptomycin (Welgene, LS 202-02) were seeded at a density of 2.5×10^5/well in a 6-well plate in an amount of 2 ml each and incubated for 2 days.
# [Compound treatment] […] After 24 hours, cells were harvested. For the negative control group, DMSO diluted 1/10 to the media (3 mL DMSO+27 mL media) was added.
# [Cell Lysis and Protein Quantification] Lysis buffer was prepared as follows: […] of RIPA buffer (Biosesang, RC2038-050-00)+0.5 mM PMSF (SIGMA, P7626)+1× Protease/Phosphatase Inhibitor (Cell signaling, 5872S) per well was added and placed on ice for 30 minutes (vortexing at 0 and 30 minutes, respectively). After sonication process (10 seconds pulse, 30 seconds rest, 5 cycles, 70% amplification), centrifugation (15000 g, 15 min, 4° C.) was performed, and then only the supernatant was taken and transferred to a new microtube. The sample was diluted ¼ with RIPA buffer in a 96-well plate, and mixed with A:B=50:1 of the BCA Protein Assay Kit (iNtRON, 21071). […] each of the mixture was left at 37° C. for 30 minutes, and cooled for 10 minutes. Then, absorbance was measured at 562 nm with the SYNERGY H1 microplate reader from BioTek. After making a sample by quantifying the protein with the measured value, boiling was performed at 70° C. for 10 minutes. At this time, the sample buffer used was a mixture of NuPAGE or Bolt 4× sample buffer (Invitrogen) and each 10× sample reducing agent according to the gel to be used, and RIPA buffer was used for protein dilution.
# [Western blotting detection method] The same amount of sample was loaded on NuPAGE or Bolt Bis-tris 4-12% gradient gel and run (200 V, 35 minutes). It was transferred to 0.2 mm NC membrane with Trans-blot Turbo (BIO-RAD) (1.3 A constant, 25 V limit, 15 minutes). Blocking was performed at room temperature for 1 hour with Skim milk or Intercept Blocking Buffer (LI-COR, 927-60001):0.1% TBST=1:1. Anti SHPTP2 Mouse (1:500 in 5% Skim milk/TBST, size: 70 kDa, Santacruz sc-7384) was incubated overnight at 4° C., and Anti GAPDH Rabbit (1:2,000 in 5% BSA/0.2% TBST, size: 37 kDa, CST #2118) was incubated at room temperature for 1 hour 30 minutes or 3 hours. It was washed 3 times for 5 minutes each with 0.2% TBST washing buffer. Secondary antibody Anti-Rabbit IgG (1:5,000 in 5% Skim milk/0.2% TBST, CST), and IRDye® 680RD Goat anti-Rabbit IgG Secondary Antibody (1:10,000 in 5% BSA/0.2% TBST, LI-COR 926-68071) were incubated for 45 minutes on a rocker at room temperature. It was washed 5 times for 5 minutes each with 0.2% TBST washing buffer and detected with LI-COR's Odyssey. At this time, SHPTP2 was detected using SuperSignal West Pico PLUS Chemiluminescent Substrate, and house-keeping genes were also detected.
# In the results of Table 4 below, Compounds 1-7, 13-19, and 21-26 are results in KYSE-520 cells, and the others are results in MV-4-11 cells.
Compound,SHP2 degradation (%) 100 nM [%],SHP2 degradation (%) 1000 nM [%],SHP2 degradation (%) 10 nM [%]
"Cc1ncsc1-c1ccc(CNC(=O)[C@@H]2C[C@@H](O)CN2C(=O)[C@@H](NC(=O)C2(F)CC2)C(C)(C)C)c(OCCCCCCN2CC(C(=O)Nc3cccc(Sc4cnc(N5CCC(C)(CN)CC5)cn4)c3Cl)C2)c1 [Example 19, (2S,4R)—N-(2-((6-(3-((3-((5-(4-(aminomethyl)-4-methylpiperidin-1-yl)pyrazin-2-yl)thio)-2-chlorophenyl)carbamoyl)azetidin-1-yl)hexyl)oxy)-4-(4-methylthiazol-5-yl)benzyl)-1-((S)-2-(1-fluorocyclopropane-1-carboxamido)-3,3-dimethylbutanoyl)-4-hydroxypyrrolidine-2-carboxamide]",31.5,78.0,–
"Cc1ncsc1-c1ccc(CNC(=O)[C@@H]2C[C@@H](O)CN2C(=O)[C@@H](NC(=O)C2(F)CC2)C(C)(C)C)c(OCCCN2CCC(C(=O)Nc3cccc(Sc4cnc(N5CCC(C)(CN)CC5)cn4)c3Cl)CC2)c1 [Example 1, N-(3-((5-(4-(aminomethyl)-4-methylpiperidin-1-yl)pyrazin-2-yl)thio)-2-chlorophenyl)-1-(3-(2-(((2S,4R)-1-((S)-2-(1-fluorocyclopropane-1-carboxamido)-3,3-dimethylbutanoyl)-4-hydroxypyrrolidine-2-carboxamido)methyl)-5-(4-methylthiazol-5-yl)phenoxy)propyl)piperidine-4-carboxamide]",64.5,74.5,28.9
"Cc1ncsc1-c1ccc(CNC(=O)[C@@H]2C[C@@H](O)CN2C(=O)[C@@H](NC(=O)C2(F)CC2)C(C)(C)C)c(OCCN2CCC(CCC(=O)Nc3cccc(Sc4cnc(N5CCC(C)(CN)CC5)cn4)c3Cl)CC2)c1 [Example 13, (2S,4R)—N-(2-(2-(4-(3-((3-((5-(4-(aminomethyl)-4-methylpiperidin-1-yl)pyrazin-2-yl)thio)-2-chlorophenyl)amino)-3-oxopropyl)piperidin-1-yl)ethoxy)-4-(4-methylthiazol-5-yl)benzyl)-1-((S)-2-(1-fluorocyclopropane-1-carboxamido)-3,3-dimethylbutanoyl)-4-hydroxypyrrolidine-2-carboxamide]",49.6,69.2,−6.1
"Cc1ncsc1-c1ccc(CNC(=O)[C@@H]2C[C@@H](O)CN2C(=O)[C@@H](NC(=O)C2(F)CC2)C(C)(C)C)c(OCCCC(=O)N2CCC(C(=O)Nc3cccc(Sc4cnc(N5CCC(C)(CN)CC5)cn4)c3Cl)CC2)c1 [Example 21, N-(3-((5-(4-(aminomethyl)-4-methylpiperidin-1-yl)pyrazin-2-yl)thio)-2-chlorophenyl)-1-(4-(2-(((2S,4R)-1-((S)-2-(1-fluorocyclopropane-1-carboxamido)-3,3-dimethylbutanoyl)-4-hydroxypyrrolidine-2-carboxamido)methyl)-5-(4-methylthiazol-5-yl)phenoxy)butanoyl)piperidine-4-carboxamide]",51.7,66.6,11.7
"Cc1ncsc1-c1ccc(CNC(=O)[C@@H]2C[C@@H](O)CN2C(=O)[C@@H](NC(=O)C2(F)CC2)C(C)(C)C)c(OCCN2CCC(CC(=O)Nc3cccc(Sc4cnc(N5CCC(C)(CN)CC5)cn4)c3Cl)CC2)c1 [Example 5, (2S,4R)—N-(2-(2-(4-(2-((3-((5-(4-(aminomethyl)-4-methylpiperidin-1-yl)pyrazin-2-yl)thio)-2-chlorophenyl)amino)-2-oxoethyl)piperidin-1-yl)ethoxy)-4-(4-methylthiazol-5-yl)benzyl)-1-((S)-2-(1-fluorocyclopropane-1-carboxamido)-3,3-dimethylbutanoyl)-4-hydroxypyrrolidine-2-carboxamide]",56.7,90.6,3.4
"Cc1ncsc1-c1ccc(CNC(=O)[C@@H]2C[C@@H](O)CN2C(=O)[C@@H](NC(=O)C2(F)CC2)C(C)(C)C)c(OCCCCCCCCN2CCC(C(=O)Nc3cccc(Sc4cnc(N5CCC(C)(CN)CC5)cn4)c3Cl)CC2)c1 [Example 4, N-(3-((5-(4-(aminomethyl)-4-methylpiperidin-1-yl)pyrazin-2-yl)thio)-2-chlorophenyl)-1-(8-(2-(((2S,4R)-1-((S)-2-(1-fluorocyclopropane-1-carboxamido)-3,3-dimethylbutanoyl)-4-hydroxypyrrolidine-2-carboxamido)methyl)-5-(4-methylthiazol-5-yl)phenoxy)octyl)piperidine-4-carboxamide]",60.7,90.7,4.1
"Cc1ncsc1-c1ccc(CNC(=O)[C@@H]2C[C@@H](O)CN2C(=O)[C@@H](NC(=O)C2(F)CC2)C(C)(C)C)c(OCCCCN2CCC(CCCC(=O)Nc3cccc(Sc4cnc(N5CCC(C)(CN)CC5)cn4)c3Cl)CC2)c1 [Example 17, (2S,4R)—N-(2-(4-(4-(4-((3-((5-(4-(aminomethyl)-4-methylpiperidin-1-yl)pyrazin-2-yl)thio)-2-chlorophenyl)amino)-4-oxobutyl)piperidin-1-yl)butoxy)-4-(4-methylthiazol-5-yl)benzyl)-1-((S)-2-(1-fluorocyclopropane-1-carboxamido)-3,3-dimethylbutanoyl)-4-hydroxypyrrolidine-2-carboxamide]",71.8,94.9,–
"Cc1ncsc1-c1ccc(CNC(=O)[C@@H]2C[C@@H](O)CN2C(=O)[C@@H](NC(=O)C2(F)CC2)C(C)(C)C)c(OCCCCCC(=O)N2CCC(CCCC(=O)Nc3cccc(Sc4cnc(N5CCC(C)(CN)CC5)cn4)c3Cl)CC2)c1 [Example 26, (2S,4R)—N-(2-((6-(4-(4-((3-((5-(4-(aminomethyl)-4-methylpiperidin-1-yl)pyrazin-2-yl)thio)-2-chlorophenyl)amino)-4-oxobutyl)piperidin-1-yl)-6-oxohexyl)oxy)-4-(4-methylthiazol-5-yl)benzyl)-1-((S)-2-(1-fluorocyclopropane-1-carboxamido)-3,3-dimethylbutanoyl)-4-hydroxypyrrolidine-2-carboxamide]",83.2,95.0,40.6
